Experimental data from the CheMixHub viscosity set.
Values joined by “and” are separate entries in the source; they are usually repeats but may differ in a detail not shown here. Equal values may be shown once.

Assay: xn = mol fraction of the nth substance listed

C1CCCCC1 + CCO
Conditions | viscosity [mPa·s]
293.15 K, 101.3 kPa, x1 = 0.0565 | 1.143
293.15 K, 101.3 kPa, x1 = 0.2674 | 1.028
293.15 K, 101.3 kPa, x1 = 0.3539 | 0.9953
293.15 K, 101.3 kPa, x1 = 0.4506 | 0.9698
293.15 K, 101.3 kPa, x1 = 0.5626 | 0.9436
293.15 K, 101.3 kPa, x1 = 0.6898 | 0.9184
293.15 K, 101.3 kPa, x1 = 0.8348 | 0.9099
298.15 K, 101 kPa, x2 = 0.0396 | 0.871
298.15 K, 101 kPa, x2 = 0.0718 | 0.867
298.15 K, 101 kPa, x2 = 0.1435 | 0.851
298.15 K, 101 kPa, x2 = 0.3225 | 0.839
298.15 K, 101 kPa, x2 = 0.4832 | 0.864
298.15 K, 101 kPa, x2 = 0.6269 | 0.901
298.15 K, 101 kPa, x2 = 0.7067 | 0.923
298.15 K, 101 kPa, x2 = 0.8205 | 0.967
298.15 K, 101.3 kPa, x1 = 0.0565 | 1.037
298.15 K, 101.3 kPa, x1 = 0.1188 | 0.9995
298.15 K, 101.3 kPa, x1 = 0.1894 | 0.9602
298.15 K, 101.3 kPa, x1 = 0.2674 | 0.9303
298.15 K, 101.3 kPa, x1 = 0.3539 | 0.9067
298.15 K, 101.3 kPa, x1 = 0.4506 | 0.8821
298.15 K, 101.3 kPa, x1 = 0.5626 | 0.8589
298.15 K, 101.3 kPa, x1 = 0.6898 | 0.8388
298.15 K, 101.3 kPa, x1 = 0.8348 | 0.8319
298.15 K, 101.33 kPa, x1 = 0.0999 | 1.003
298.15 K, 101.33 kPa, x1 = 0.1993 | 0.951
298.15 K, 101.33 kPa, x1 = 0.2995 | 0.923
298.15 K, 101.33 kPa, x1 = 0.3987 | 0.892
298.15 K, 101.33 kPa, x1 = 0.5003 | 0.872
298.15 K, 101.33 kPa, x1 = 0.55 | 0.861
298.15 K, 101.33 kPa, x1 = 0.6011 | 0.851
298.15 K, 101.33 kPa, x1 = 0.7014 | 0.831
298.15 K, 101.33 kPa, x1 = 0.803 | 0.826
298.15 K, 101.33 kPa, x1 = 0.9006 | 0.84
303.15 K, 101.3 kPa, x1 = 0.0565 | 0.947
303.15 K, 101.3 kPa, x1 = 0.1188 | 0.9133
303.15 K, 101.3 kPa, x1 = 0.1894 | 0.8784
303.15 K, 101.3 kPa, x1 = 0.2674 | 0.8522
303.15 K, 101.3 kPa, x1 = 0.3539 | 0.8288
303.15 K, 101.3 kPa, x1 = 0.4506 | 0.8084
303.15 K, 101.3 kPa, x1 = 0.5626 | 0.786
303.15 K, 101.3 kPa, x1 = 0.6898 | 0.7655
303.15 K, 101.3 kPa, x1 = 0.8348 | 0.7647
303.15 K, 101.33 kPa, x2 = 0.0952 | 0.7883
303.15 K, 101.33 kPa, x2 = 0.1976 | 0.7705
303.15 K, 101.33 kPa, x2 = 0.2988 | 0.7735
303.15 K, 101.33 kPa, x2 = 0.3894 | 0.7762
303.15 K, 101.33 kPa, x2 = 0.4879 | 0.7852
303.15 K, 101.33 kPa, x2 = 0.5929 | 0.8063
303.15 K, 101.33 kPa, x2 = 0.7828 | 0.8609
303.15 K, 101.33 kPa, x2 = 0.9018 | 0.921
308.15 K, 101 kPa, x2 = 0.0396 | 0.741
308.15 K, 101 kPa, x2 = 0.0718 | 0.729
308.15 K, 101 kPa, x2 = 0.1435 | 0.716
308.15 K, 101 kPa, x2 = 0.3225 | 0.707
308.15 K, 101 kPa, x2 = 0.4832 | 0.726
308.15 K, 101 kPa, x2 = 0.6269 | 0.752
308.15 K, 101 kPa, x2 = 0.7067 | 0.772
308.15 K, 101 kPa, x2 = 0.8205 | 0.807
308.15 K, 101 kPa, x2 = 0.8789 | 0.835
308.15 K, 101 kPa, x2 = 0.9548 | 0.875
308.15 K, 101.3 kPa, x1 = 0.0565 | 0.8683
308.15 K, 101.3 kPa, x1 = 0.1188 | 0.8383
308.15 K, 101.3 kPa, x1 = 0.1894 | 0.8039
308.15 K, 101.3 kPa, x1 = 0.2674 | 0.7793
308.15 K, 101.3 kPa, x1 = 0.3539 | 0.7578
308.15 K, 101.3 kPa, x1 = 0.4506 | 0.7384
308.15 K, 101.3 kPa, x1 = 0.5626 | 0.7191
308.15 K, 101.3 kPa, x1 = 0.6898 | 0.7052
308.15 K, 101.3 kPa, x1 = 0.8348 | 0.7051
318.15 K, 101 kPa, x2 = 0.0396 | 0.632
318.15 K, 101 kPa, x2 = 0.0718 | 0.627
318.15 K, 101 kPa, x2 = 0.1435 | 0.614
318.15 K, 101 kPa, x2 = 0.3225 | 0.601
318.15 K, 101 kPa, x2 = 0.4832 | 0.616
318.15 K, 101 kPa, x2 = 0.6269 | 0.634
318.15 K, 101 kPa, x2 = 0.7067 | 0.649
318.15 K, 101 kPa, x2 = 0.8205 | 0.68
318.15 K, 101 kPa, x2 = 0.8789 | 0.701
318.15 K, 101 kPa, x2 = 0.9548 | 0.736

CCCCOCC(C)O (stereo not drawn) + CCO
viscosity [mPa·s], 101.33 kPa
Conditions | 298.15 K | 308.15 K | 318.15 K
x1 = 0.05 | 1.229 | 1.013 | 0.846
x1 = 0.1 | 1.344 | 1.103 | 0.915
x1 = 0.15 | 1.462 | 1.193 | 0.982
x1 = 0.2 | 1.585 | 1.279 | 1.046
x1 = 0.25 | 1.705 | 1.363 | 1.108
x1 = 0.3 | 1.813 | 1.442 | 1.166
x1 = 0.35 | 1.918 | 1.516 | 1.22
x1 = 0.4 | 2.022 | 1.589 | 1.273
x1 = 0.45 | 2.12 | 1.656 | 1.321
x1 = 0.5 | 2.211 | 1.724 | 1.365
x1 = 0.55 | 2.305 | 1.779 | 1.409
x1 = 0.6 | 2.384 | 1.841 | 1.445
x1 = 0.65 | 2.469 | 1.891 | 1.49
x1 = 0.7 | 2.536 | 1.935 | 1.517
x1 = 0.7499 | 2.608 | 1.983 | 1.55
x1 = 0.7998 | 2.674 | 2.035 | 1.58
x1 = 0.85 | 2.737 | 2.067 | 1.609
x1 = 0.8998 | 2.788 | 2.099 | 1.633
x1 = 0.95 | 2.841 | 2.135 | 1.647

COC(C)=O + CCO
298.15 K, 101.33 kPa
Conditions | viscosity [mPa·s]
x1 = 0.1146 | 0.833
x1 = 0.2045 | 0.695
x1 = 0.3207 | 0.574
x1 = 0.4245 | 0.506
x1 = 0.5004 | 0.467
x1 = 0.6077 | 0.438
x1 = 0.7989 | 0.399
x1 = 0.8802 | 0.39

COCCOC + CCO
298.15 K, 101 kPa
Conditions | viscosity [mPa·s]
x1 = 0.05375 | 0.9565
x1 = 0.1133 | 0.8329
x1 = 0.1797 | 0.7369
x1 = 0.2542 | 0.663
x1 = 0.3383 | 0.5931
x1 = 0.434 | 0.5444
x1 = 0.544 | 0.4926
x1 = 0.8215 | 0.4356

COC(C)=O + CCOC(C)=O
viscosity, 101 kPa
Conditions | 298.15 K | 313.15 K
x1 = 0.0544 | 0.432 mPa·s | 0.372 mPa·s
x1 = 0.0916 | 0.429 mPa·s | 0.37 mPa·s
x1 = 0.2242 | 0.418 mPa·s | 0.361 mPa·s
x1 = 0.3041 | 0.412 mPa·s | 0.357 mPa·s
x1 = 0.3995 | 0.405 mPa·s | 0.351 mPa·s
x1 = 0.5024 | 0.399 mPa·s | 0.346 mPa·s
x1 = 0.5482 | 0.396 mPa·s | 0.344 mPa·s
x1 = 0.6054 | 0.392 mPa·s | 0.341 mPa·s
x1 = 0.7024 | 0.387 mPa·s | 0.337 mPa·s
x1 = 0.8025 | 0.381 mPa·s | 0.333 mPa·s
x1 = 0.9028 | 0.377 mPa·s | 0.33 mPa·s
x1 = 0.9548 | 0.376 mPa·s | 0.33 mPa·s
x2 = 0.07815 | 0.3638 mPa·s | –
x2 = 0.189 | 0.3713 mPa·s | –
x2 = 0.3264 | 0.3801 mPa·s | –
x2 = 0.4453 | 0.3876 mPa·s | –
x2 = 0.5532 | 0.3943 mPa·s | –
x2 = 0.7914 | 0.4098 mPa·s and 0.4098 mPa·s | –
x2 = 0.8752 | 0.4158 mPa·s | –

COc1ccccc1N + CCOCCO
303.15 K, 101 kPa
Conditions | viscosity [mPa·s]
x1 = 0.0875 | 2.2
x1 = 0.1775 | 2.547
x1 = 0.2701 | 2.908
x1 = 0.3653 | 3.268
x1 = 0.4633 | 3.603
x1 = 0.5643 | 3.917
x1 = 0.6683 | 4.18
x1 = 0.7755 | 4.436
x1 = 0.886 | 4.681
